Laboratory results from patent publication US4395417A, “Antihyperlipidemic compositions” (Research Corporation, priority 1980, dated 1983).

System: serum cholesterol
Experiment: Serum cholesterol of male CF1 mice (Liebermann-Burchard reaction)
Format: in vivo
Conditions: Mus musculus, ip, 216 h; Table 1; 20 mg/kg/day I.P., male CF1 mice, N = 6, 9th day; control value 118 mg %; read-out: Serum Cholesterol, 9th day
Protocol: (§1) For hypolipidemic activity, the compounds were tested at 20 mg/kg/day administered I.P. to male CF1 mice (~30 g). On days 9 and 16 blood was collected by tail-vein bleeding. Serum cholesterol was determined by the Liebermann-Burchard reaction. Serum triglyceride levels were determined using the Hycel commercial kits on a separate group of mice, which were bled on day 14.

`CC(=O)CN1C(=O)c2ccccc2C1=O` [1-N--Phthalimidopropan-2-one] and `O=C(O)CCN1C(=O)c2ccccc2C1=O` [3-N--Phthalimidopropionic Acid] are within error of each other in response vs control in vivo at 20 mg/kg/day: 80 ± 16% for the first, 74 ± 10% for the second.

`CC(=O)CCN1C(=O)c2ccccc2S1(=O)=O` [1-N--(o-Benzosulfimido)butan-3-one] and `O=C1NC(=O)c2ccccc21` [Phthalimide] are within error of each other in response vs control in vivo at 20 mg/kg/day: 60 ± 8% for the first, 63 ± 13% for the second.

Same assay, conditions: Mus musculus, ip, 216 h; Table 3; mice, N = 6, 9th day; control 115 mg %; read-out: serum cholesterol, 9th day

`CC(=O)CN1C(=O)c2ccccc2C1=O` [1-N--Phthalimidopropan-2-one] and `CC(=O)OCN1C(=O)c2ccccc2C1=O` [N--phthalimidomethyl acetate] are within error of each other in response vs control in vivo at 20 mg/kg/day: 80 ± 16% for the first, 61 ± 9% for the second.

`CC(=O)CCCN1C(=O)c2ccccc2C1=O` [1-N--phthalimidopentan-4-one] and `O=C(O)CCCCN1C(=O)c2ccccc2C1=O` [5-N--phthalimidovaleric] are within error of each other in response vs control in vivo at 20 mg/kg/day: 71 ± 6% for the first, 83 ± 9% for the second.

Work on `O=C(O)CCN1C(=O)c2ccccc2C1=O` [3-N--Phthalimidopropionic Acid] yielded a response vs control in vivo at 20 mg/kg/day of 74 ± 7%.

Same assay, conditions: Mus musculus, ip, 384 h; Table 1; 20 mg/kg/day I.P., male CF1 mice, N = 6, 16th day; control value 122 mg %; read-out: Serum Cholesterol, 16th day

`CC(=O)CN1C(=O)c2ccccc2C1=O` [1-N--Phthalimidopropan-2-one] and `O=C(O)CCN1C(=O)c2ccccc2C1=O` [3-N--Phthalimidopropionic Acid] are within error of each other in response vs control in vivo at 20 mg/kg/day: 67 ± 12% for the first, 55 ± 12% for the second.

`CC(=O)CCN1C(=O)c2ccccc2S1(=O)=O` [1-N--(o-Benzosulfimido)butan-3-one] and `O=C1NC(=O)c2ccccc21` [Phthalimide] are within error of each other in response vs control in vivo at 20 mg/kg/day: 62 ± 6% for the first, 57 ± 7% for the second.

Same assay, conditions: Mus musculus, ip, 384 h; Table 3; mice, N = 6, 16th day; control 118 mg %; read-out: serum cholesterol, 16th day

`CC(=O)CN1C(=O)c2ccccc2C1=O` [1-N--Phthalimidopropan-2-one] and `CC(=O)OCN1C(=O)c2ccccc2C1=O` [N--phthalimidomethyl acetate] are within error of each other in response vs control in vivo at 20 mg/kg/day: 67 ± 12% for the first, 62 ± 4% for the second.

Compared with `CC(=O)CCCN1C(=O)c2ccccc2C1=O` [1-N--phthalimidopentan-4-one], `O=C(O)CCCCN1C(=O)c2ccccc2C1=O` [5-N--phthalimidovaleric] is higher in response vs control in vivo at 20 mg/kg/day: 63 ± 5% for the first, 77 ± 4% for the second.

`O=C(O)CCN1C(=O)c2ccccc2C1=O` [3-N--Phthalimidopropionic Acid] showed a response vs control in vivo at 20 mg/kg/day of 55 ± 11%.

System: serum triglyceride
Experiment: Serum triglyceride levels of male mice (Hycel commercial kits)
Format: in vivo, male CF1 mice
Conditions: Mus musculus, ip, 336 h; Table 1; 20 mg/kg/day I.P., male mice, N = 6, 14th day; control value 137 mg %; read-out: Serum Triglyceride, 14th day
Protocol: as §1

`CC(=O)CN1C(=O)c2ccccc2C1=O` [1-N--Phthalimidopropan-2-one] and `O=C(O)CCN1C(=O)c2ccccc2C1=O` [3-N--Phthalimidopropionic Acid] are within error of each other in response vs control in vivo at 20 mg/kg/day: 48 ± 10% for the first, 58 ± 9% for the second.

`CC(=O)CCN1C(=O)c2ccccc2S1(=O)=O` [1-N--(o-Benzosulfimido)butan-3-one] and `O=C1NC(=O)c2ccccc21` [Phthalimide] are within error of each other in response vs control in vivo at 20 mg/kg/day: 51 ± 7% for the first, 44 ± 8% for the second.

Same assay, conditions: Mus musculus, ip, 336 h; Table 3; mice, N = 6; control 138 mg %; read-out: serum triglycerides

`CC(=O)CN1C(=O)c2ccccc2C1=O` [1-N--Phthalimidopropan-2-one] and `CC(=O)OCN1C(=O)c2ccccc2C1=O` [N--phthalimidomethyl acetate] are within error of each other in response vs control in vivo at 20 mg/kg/day: 48 ± 10% for the first, 57 ± 25% for the second.

`CC(=O)CCCN1C(=O)c2ccccc2C1=O` [1-N--phthalimidopentan-4-one] and `O=C(O)CCCCN1C(=O)c2ccccc2C1=O` [5-N--phthalimidovaleric] are within error of each other in response vs control in vivo at 20 mg/kg/day: 59 ± 13% for the first, 54 ± 5% for the second.

In the case of `O=C(O)CCN1C(=O)c2ccccc2C1=O` [3-N--Phthalimidopropionic Acid], the response vs control in vivo at 20 mg/kg/day is reported as 58 ± 10%.

Biological target: T1, Acetyl-CoA Synthetase (Mus musculus, UniProt Q9QXG4)
T1 construct: gm wet tissue/30 min; from tissue
Experiment: In vitro acetyl coenzyme A synthetase activity (method of Goodridge)
Format: biochemical, mice
Conditions: Table 2, N = 6, x ± S.D., control 28.5 mg acetyl CoA formed/gm wet tissue/30 min.

T1 sequence (Q9QXG4 whole entry): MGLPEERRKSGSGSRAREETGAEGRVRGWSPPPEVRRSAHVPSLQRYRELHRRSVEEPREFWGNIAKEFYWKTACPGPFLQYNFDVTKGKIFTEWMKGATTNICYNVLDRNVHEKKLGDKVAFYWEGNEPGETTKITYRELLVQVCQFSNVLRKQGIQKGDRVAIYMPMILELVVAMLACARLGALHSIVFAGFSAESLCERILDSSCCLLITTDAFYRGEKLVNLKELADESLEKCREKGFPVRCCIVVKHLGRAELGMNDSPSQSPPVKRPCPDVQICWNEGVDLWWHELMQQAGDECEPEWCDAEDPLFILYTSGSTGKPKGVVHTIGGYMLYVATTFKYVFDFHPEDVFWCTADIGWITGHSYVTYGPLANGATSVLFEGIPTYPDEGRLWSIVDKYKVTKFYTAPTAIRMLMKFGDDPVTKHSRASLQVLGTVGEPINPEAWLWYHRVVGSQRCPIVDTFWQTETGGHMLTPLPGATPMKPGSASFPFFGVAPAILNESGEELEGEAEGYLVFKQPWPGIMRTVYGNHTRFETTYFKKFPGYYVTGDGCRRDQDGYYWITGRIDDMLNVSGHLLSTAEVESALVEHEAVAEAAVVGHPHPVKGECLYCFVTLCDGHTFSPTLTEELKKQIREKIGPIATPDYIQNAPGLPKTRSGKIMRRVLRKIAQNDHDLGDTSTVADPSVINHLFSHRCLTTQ

`CC(=O)CN1C(=O)c2ccccc2C1=O` [1-N--Phthalimidopropan-2-one] and `O=C(O)CCN1C(=O)c2ccccc2C1=O` [3-N--Phthalimidopropionic Acid] are within error of each other in “Acetyl-CoA Synthetase” value: 58 ± 7 % Control for the first, 57 ± 10 % Control for the second.

`CC(=O)CCN1C(=O)c2ccccc2S1(=O)=O` [1-N--(o-Benzosulfimido)butan-3-one] and `O=C1NC(=O)c2ccccc21` [Phthalimide] are within error of each other in “Acetyl-CoA Synthetase” value: 74 ± 9 % Control for the first, 70 ± 8 % Control for the second.

Same assay, conditions: Table 3, N = 6, control 10.8 mg/g wet tissue

`CC(=O)CN1C(=O)c2ccccc2C1=O` [1-N--Phthalimidopropan-2-one] and `CC(=O)OCN1C(=O)c2ccccc2C1=O` [N--phthalimidomethyl acetate] are within error of each other in “in vitro AcCoA synthetase” value: 58 ± 7 % Control for the first, 62 ± 10 % Control for the second.

First: CC(=O)CCCN1C(=O)c2ccccc2C1=O [1-N--phthalimidopentan-4-one]
Second: O=C(O)CCCCN1C(=O)c2ccccc2C1=O [5-N--phthalimidovaleric]
The “in vitro AcCoA synthetase” value of the first is lower: 62 ± 3 % Control for the first, 76 ± 8 % Control for the second.

In the case of `O=C(O)CCN1C(=O)c2ccccc2C1=O` [3-N--Phthalimidopropionic Acid], the “in vitro AcCoA synthetase” value is reported as 57 ± 7 % Control.

Biological target: T2, Citrate Lyase (Mus musculus, UniProt Q91V92)
T2 construct: 30.5 mg of citrate hydrolyzed/gm wet tissue/30 min; from tissue
T2 sequence (Q91V92 1-1091): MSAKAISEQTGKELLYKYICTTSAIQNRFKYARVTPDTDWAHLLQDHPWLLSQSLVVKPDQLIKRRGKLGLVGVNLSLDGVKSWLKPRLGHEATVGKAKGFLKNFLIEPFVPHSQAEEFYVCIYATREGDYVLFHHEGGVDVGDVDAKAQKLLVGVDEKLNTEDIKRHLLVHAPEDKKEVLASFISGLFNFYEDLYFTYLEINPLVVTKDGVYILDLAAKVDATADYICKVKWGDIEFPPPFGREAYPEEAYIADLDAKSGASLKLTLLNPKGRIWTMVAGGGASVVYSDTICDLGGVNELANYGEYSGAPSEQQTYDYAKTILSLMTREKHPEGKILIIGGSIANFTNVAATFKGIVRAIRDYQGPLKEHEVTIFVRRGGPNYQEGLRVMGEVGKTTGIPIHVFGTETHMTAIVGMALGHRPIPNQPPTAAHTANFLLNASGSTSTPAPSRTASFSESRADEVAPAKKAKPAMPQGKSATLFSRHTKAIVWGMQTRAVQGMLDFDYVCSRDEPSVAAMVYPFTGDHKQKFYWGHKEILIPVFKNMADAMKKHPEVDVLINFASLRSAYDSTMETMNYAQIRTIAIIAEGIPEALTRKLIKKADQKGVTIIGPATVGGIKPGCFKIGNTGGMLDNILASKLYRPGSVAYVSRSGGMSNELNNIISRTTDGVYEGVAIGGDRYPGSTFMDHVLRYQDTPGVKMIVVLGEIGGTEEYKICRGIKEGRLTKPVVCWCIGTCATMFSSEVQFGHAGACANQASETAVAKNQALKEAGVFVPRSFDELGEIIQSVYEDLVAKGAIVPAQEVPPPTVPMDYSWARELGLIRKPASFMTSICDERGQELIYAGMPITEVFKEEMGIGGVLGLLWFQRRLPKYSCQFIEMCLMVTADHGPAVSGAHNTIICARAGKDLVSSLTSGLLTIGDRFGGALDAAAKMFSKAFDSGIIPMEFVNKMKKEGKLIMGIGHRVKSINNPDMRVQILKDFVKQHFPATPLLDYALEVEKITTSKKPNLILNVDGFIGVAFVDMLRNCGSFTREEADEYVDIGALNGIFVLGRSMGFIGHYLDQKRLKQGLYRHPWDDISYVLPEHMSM
Experiment: In vitro effect on citrate lyase
Format: biochemical
Conditions: Table 2, N = 6, x ± S.D., control 30.5 mg of citrate hydrolyzed/gm wet tissue/30 min.

Going from `CC(=O)CN1C(=O)c2ccccc2C1=O` [1-N--Phthalimidopropan-2-one] to `O=C(O)CCN1C(=O)c2ccccc2C1=O` [3-N--Phthalimidopropionic Acid], the “Citrate Lyase” value rises from 76 ± 4 % Control to 87 ± 6 % Control.

`CC(=O)CCN1C(=O)c2ccccc2S1(=O)=O` [1-N--(o-Benzosulfimido)butan-3-one] and `O=C1NC(=O)c2ccccc21` [Phthalimide] are within error of each other in “Citrate Lyase” value: 47 ± 8 % Control for the first, 42 ± 6 % Control for the second.

Biological target: T3, Acetyl-CoA Carboxylase (Mus musculus, UniProt Q5SWU9)
T3 construct: 32,010 dpm/gm wet tissue/30 min; from tissue
Experiment: In vitro acetyl coenzyme A carboxylase activity (method of Greenspan and Lowenstein)
Format: biochemical
Conditions: Table 2, N = 6, x ± S.D., control 32,010 dpm/gm wet tissue/30 min.

`CC(=O)CN1C(=O)c2ccccc2C1=O` [1-N--Phthalimidopropan-2-one] and `O=C(O)CCN1C(=O)c2ccccc2C1=O` [3-N--Phthalimidopropionic Acid] are within error of each other in “Acetyl-CoA Carboxylase” value: 24 ± 4 % Control for the first, 18 ± 4 % Control for the second.

`CC(=O)CCN1C(=O)c2ccccc2S1(=O)=O` [1-N--(o-Benzosulfimido)butan-3-one] and `O=C1NC(=O)c2ccccc21` [Phthalimide] are within error of each other in “Acetyl-CoA Carboxylase” value: 12 ± 3 % Control for the first, 8 ± 4 % Control for the second.

Biological target: T4, Fatty Acid Synthetase (Mus musculus, UniProt P19096)
T4 construct: gm wet tissue/30 min; from tissue
Experiment: In vitro effect on fatty acid synthetase
Format: biochemical
Conditions: Table 2, N = 6, x ± S.D.

T4 sequence (P19096 whole entry): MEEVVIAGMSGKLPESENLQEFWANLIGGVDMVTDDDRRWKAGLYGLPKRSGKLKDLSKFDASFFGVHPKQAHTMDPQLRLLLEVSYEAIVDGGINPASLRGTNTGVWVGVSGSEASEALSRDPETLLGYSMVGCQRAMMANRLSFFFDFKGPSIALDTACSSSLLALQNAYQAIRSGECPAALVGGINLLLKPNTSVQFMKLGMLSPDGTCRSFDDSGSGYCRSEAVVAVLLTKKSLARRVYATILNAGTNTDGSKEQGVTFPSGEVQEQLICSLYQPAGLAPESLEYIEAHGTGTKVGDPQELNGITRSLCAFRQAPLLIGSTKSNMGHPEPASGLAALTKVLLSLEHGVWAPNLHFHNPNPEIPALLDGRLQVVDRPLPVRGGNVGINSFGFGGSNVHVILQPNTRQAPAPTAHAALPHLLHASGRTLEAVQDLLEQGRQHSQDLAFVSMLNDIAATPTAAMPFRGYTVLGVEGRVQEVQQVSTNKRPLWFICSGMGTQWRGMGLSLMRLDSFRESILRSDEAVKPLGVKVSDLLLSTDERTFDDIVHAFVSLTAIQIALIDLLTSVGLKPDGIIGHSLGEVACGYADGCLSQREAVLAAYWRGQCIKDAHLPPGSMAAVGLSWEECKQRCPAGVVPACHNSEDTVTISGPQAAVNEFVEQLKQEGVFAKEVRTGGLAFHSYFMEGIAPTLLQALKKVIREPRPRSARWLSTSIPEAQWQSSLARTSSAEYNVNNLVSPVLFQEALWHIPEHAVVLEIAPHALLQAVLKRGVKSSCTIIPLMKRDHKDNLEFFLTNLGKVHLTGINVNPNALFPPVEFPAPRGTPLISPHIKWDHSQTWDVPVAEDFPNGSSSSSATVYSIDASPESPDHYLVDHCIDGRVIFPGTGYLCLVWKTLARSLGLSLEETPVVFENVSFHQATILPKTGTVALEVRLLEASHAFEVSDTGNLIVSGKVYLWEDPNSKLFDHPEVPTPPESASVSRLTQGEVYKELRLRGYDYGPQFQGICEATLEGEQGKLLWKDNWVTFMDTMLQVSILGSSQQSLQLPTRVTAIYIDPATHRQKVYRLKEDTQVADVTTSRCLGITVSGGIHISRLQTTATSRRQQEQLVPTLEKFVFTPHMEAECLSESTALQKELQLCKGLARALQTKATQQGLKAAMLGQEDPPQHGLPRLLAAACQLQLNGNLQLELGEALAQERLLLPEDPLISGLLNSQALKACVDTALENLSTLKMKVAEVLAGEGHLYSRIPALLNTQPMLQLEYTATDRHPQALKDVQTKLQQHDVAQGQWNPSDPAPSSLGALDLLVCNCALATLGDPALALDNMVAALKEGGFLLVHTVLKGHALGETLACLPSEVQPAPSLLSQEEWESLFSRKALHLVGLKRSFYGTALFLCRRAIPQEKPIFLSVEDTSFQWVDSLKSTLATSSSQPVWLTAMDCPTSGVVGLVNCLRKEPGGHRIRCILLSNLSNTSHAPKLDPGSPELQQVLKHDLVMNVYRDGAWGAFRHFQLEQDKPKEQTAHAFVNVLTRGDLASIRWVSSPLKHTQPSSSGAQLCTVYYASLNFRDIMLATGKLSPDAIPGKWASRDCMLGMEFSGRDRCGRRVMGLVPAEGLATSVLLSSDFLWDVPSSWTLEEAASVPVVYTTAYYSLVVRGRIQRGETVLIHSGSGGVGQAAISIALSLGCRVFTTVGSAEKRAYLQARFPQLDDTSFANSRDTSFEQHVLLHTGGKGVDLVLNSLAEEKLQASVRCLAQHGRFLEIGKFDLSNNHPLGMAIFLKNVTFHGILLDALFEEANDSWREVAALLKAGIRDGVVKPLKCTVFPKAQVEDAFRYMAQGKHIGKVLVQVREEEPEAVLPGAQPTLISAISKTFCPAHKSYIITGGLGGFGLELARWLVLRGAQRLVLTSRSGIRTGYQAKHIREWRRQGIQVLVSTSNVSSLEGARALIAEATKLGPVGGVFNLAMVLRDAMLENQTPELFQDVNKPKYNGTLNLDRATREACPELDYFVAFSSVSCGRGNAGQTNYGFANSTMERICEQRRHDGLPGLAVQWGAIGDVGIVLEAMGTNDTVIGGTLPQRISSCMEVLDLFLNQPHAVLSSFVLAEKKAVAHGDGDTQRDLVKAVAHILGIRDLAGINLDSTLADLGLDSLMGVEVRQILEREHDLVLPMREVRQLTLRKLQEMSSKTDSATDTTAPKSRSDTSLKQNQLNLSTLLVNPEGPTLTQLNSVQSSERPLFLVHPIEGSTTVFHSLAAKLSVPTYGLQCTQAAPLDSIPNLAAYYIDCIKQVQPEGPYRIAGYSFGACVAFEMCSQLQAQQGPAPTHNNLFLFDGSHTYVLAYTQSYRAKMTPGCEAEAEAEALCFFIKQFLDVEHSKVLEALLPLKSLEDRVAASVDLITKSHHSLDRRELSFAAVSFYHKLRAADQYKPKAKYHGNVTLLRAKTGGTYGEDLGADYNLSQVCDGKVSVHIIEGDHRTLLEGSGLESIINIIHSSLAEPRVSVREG

`CC(=O)CN1C(=O)c2ccccc2C1=O` [1-N--Phthalimidopropan-2-one] and `O=C(O)CCN1C(=O)c2ccccc2C1=O` [3-N--Phthalimidopropionic Acid] are within error of each other in “Fatty Acid Synthetase” value: 91 ± 9 % Control for the first, 107 ± 7 % Control for the second.

`CC(=O)CCN1C(=O)c2ccccc2S1(=O)=O` [1-N--(o-Benzosulfimido)butan-3-one] and `O=C1NC(=O)c2ccccc21` [Phthalimide] are within error of each other in “Fatty Acid Synthetase” value: 104 ± 7 % Control for the first, 105 ± 8 % Control for the second.

System: not listed separately
Experiment: Acute toxicity (LD50) in mice
Format: in vivo
Conditions: mouse, in vivo
Description: (§2) They also are non-toxic. […] Moreover, there is no evidence that the weight of any of the major organs is altered as a result of treatment with compounds used in the invention.

In the case of `CC(=O)CN1C(=O)c2ccccc2C1=O` [1-N--Phthalimidopropan-2-one], the LD50 is reported as greater than 2000 mg/kg.

System: mice
Experiment: Acute toxicity (LD50) in mice
Format: in vivo
Conditions: 2 g/kg
Description: as §2

With `CC(=O)CN1C(=O)c2ccccc2C1=O` [1-N--Phthalimidopropan-2-one] the deaths was “no deaths were observed at this concentration”.

System: not listed separately
Experiment: Size of vas deferens, vesicular or testes after 16 day treatment in mice
Format: in vivo
Conditions: 16 day treatment at 10 (mg/kg)/day

With `CC(=O)CN1C(=O)c2ccccc2C1=O` [1-N--Phthalimidopropan-2-one] the “decrease in the size of the vas deferens, vesicular or testes” value was “no decrease in the size of the vas deferens, vesicular or testes”.

System: ovariectomized immature females
Experiment: Uterotropic effects in ovariectomized immature females
Format: in vivo, mice
Conditions: 20 mg/kg

In the case of `CC(=O)CN1C(=O)c2ccccc2C1=O` [1-N--Phthalimidopropan-2-one], the uterotropic effects is reported as “nor did the drug demonstrate uterotropic effects”.

System: not listed separately
Experiment: Hypertrophy of the adrenal
Parameters: species or system mice
Conditions: mouse, in vivo

In the case of `CC(=O)CN1C(=O)c2ccccc2C1=O` [1-N--Phthalimidopropan-2-one], the “hypertrophy of the adrenal” value is reported as “no hypertophy of the adrenal”.
